Data published in patent publication US20100303727A1, “OPTICAL IMAGING AGENTS” (priority 2007, published 2010).
Where two headings read alike, the source gives them in different places. Bridge positions count the residues as written; N and C are the ends. Peptide text beside a SMILES is read from it. * marks the point of attachment. X3 = CC[N+]1=C(/C=C/C=C/C=C2/N(CCCCCC(=O)*)c3ccc(S(=O)(=O)O)cc3C2(C)C)C(C)(C)c2cc(S(=O)(=O)[O-])ccc21; X1 = C[N+]1=C(/C=C/C=C/C=C2/N(CCCCCC(=O)*)c3ccccc3C2(C)C)C(C)(C)c2cc(S(=O)(=O)[O-])ccc21; X2 = NC(=O)COCC(=O)NCCOCCOCCOCCN*

Assays:
αVβ3 receptor = molecular target: T1, αVβ3 receptor (Homo sapiens, UniProt P05106+P06756); experiment: Competition assay using 125I-echistatin on EA-Hy926 membranes; assay type: binding; details: for Ki: competition with 125I-Echistatin, EA-Hy926 membranes
T1 construct: endogenous in cells; host or cells: EA-Hy926 human endothelial cell line (membrane preparation)
Description: A classical competition assay using ^125I-echistatin was performed in order to check the affinity (Ki) of the RGD-Cy^D conjugates (Compounds 1 to 8) towards membranes expressing. the αVβ3 receptor. Ki was determined in receptor competition studies with membranes prepared from human endothelial cells. Membranes from the human endothelial adenocarcinoma cell line EA-Hy926 that express several integrins including αVβ3 were prepared and used as a receptor source. Competitive binding of ^125I-Echistatin, a known […] for several integrins including αVβ3, was carried out with varying concentrations of cold compounds.

[1] = human, plasma
[2] = assay type: in vitro ADME, mouse
Description: Mouse plasma (non-sterile) was purchased from Rockland, Pa., USA. This plasma is stabilized with heparin, sodium. The substance was dissolved in PBS and plasma, respectively, at concentrations 0.1/0.2 mg/mL. Both blank samples (solvent without peptide) and peptide dissolved in plasma/PBS were incubated at 37° C. for about 4 hours. After incubation the proteins were removed by ultrafiltration using non-sterile Ultrafree®-MC centrifuge tubes with filter insert from Millipore Co. (Amicon). The cut-off of the filters was 30,000 NMWL Prior to centrifugation the plasma samples were diluted 1:1 with water. The samples were analysed by HPLC using visible detection.
The substance was dissolved in PBS, concentration 0.1 mg/mL. The fluorescence intensity of the ultracentrifuged samples was measured using Fluoroskan Ascent® FL equipped with plate reader (Thermo Labsystems Oy, Finland). Excitation wavelength was at 646 nm and emission wavelength at 678 nm and measurements were performed at two different concentrations of the substance, 6.5 μg/mL and 23 μg/mL plasma.
The Ultimate 3000 micro liquid chromatograph equipped with UV-Vis detector was applied in this study. The solution has an intense bluish colour and absorbs well at 650 nm.
The chromatography was performed on an X-Terra RP18 column 2.1×150 mm, 3.5 μm particles from Waters using a gradient elution of acetonitrile (ACN) and phosphate buffer (20 mM, pH 7.1); 650 nm detection; flow rate 0.1 mL/min; injection volume: 5 μL. Gradient: initiated at 22% ACN in buffer, increasing linearly to 50% ACN over 12 min; rapid linear increase of gradient to 90% ACN for 2 min followed; then equilibration to the starting mixture. Total analysis time was 20 min, with a retention time for the main peak of ˜9 min. Degradation/impurities were reported as changes in purity of the main peak.

collagen = assay type: binding; details: 1 h 37° C., Ex646/Em678 nm
Description: Commercially available collagen-covered 96-well plates were used (BD Biocoat, Art. code BDAA 356649, Becton, Dickinson Biosciences, Two Oak Park, Bedford, Mass. 01730). Triplicate wells were made of each test Compound at 30 nM, 100 nM or 300 nM (1000 nM included in some cases), and the plate was incubated in the plate reader for one hour at 37° C. with shaking every other minute*. The volume in each well was 200 μl. At the end of the incubation, 150 μl supernatant was transferred to an untreated 96-well plate, and the fluorescence was read with excitation at 646 nm and emission at 678 nm wavelengths.
For calculation of the degree of binding, the fluorescence from the supernatants was compared to the fluorescence from 150 μl aliquots with the same initial concentrations. In all cases, median values from 3 wells were used.

HT-29 tumour = experiment: In vivo optical imaging of HT-29 tumour-bearing mice; details: mean tumour region intensity divided by mean muscle region intensity, iv injection, HT-29 tumours s.c.
Description: Female BALB c/A nude (Bom) mice were used in the study. The use of the animals was approved by the local ethics committee. As the animals were immunocompromised, they were housed in individually ventilated cages (IVC, Scanbur BK) supplied with HEPA filtered air. The animals had ad libitum access to “Rat and Mouse nr. 3 Breeding” diet (Scanbur BK) and tap water acidified by addition of HCl to a molar concentration of 1 mM (pH 3.0). In order to protect the animals during handling and all procedures before the imaging procedure, they were handled under conditions of laminar HEPA filtered air.
The animals were allowed an acclimatisation period of at least 5 days before being injected s.c. with HT-29 tumour cell suspensions at two sites (shoulder and left, lower flank) with a nominal dose of 2.5-3×10^6 cells per injection in a volume of 100 μl. The s.c. injections were performed under light gas anaesthesia. […]
Image analysis was performed with custom written MATLAB software. […] The mean signal of the pixel values inside each region was calculated. The mean signal and pixel standard deviation was calculated.
Based on the in-vitro data from example 7-10, in-vivo results from compounds 1, 2, 4 and 6 are presented. Tumour enhancement is quantified by a target to background ratio (TBR) defined as the ratio of the mean tumour region intensity divided by the mean muscle region intensity.

| SMILES | Ki (αVβ3 receptor) | Ki (in words) (αVβ3 receptor; summary of Example 10) | PPB (ranking in words) [1] | % main peak area (after 4 h incubation in mouse plasma) [2] | Collagen binding (% bound) (collagen; initial conc. 30 nM) | Collagen binding (% bound) (collagen; initial conc. 100 nM) | Collagen binding (% bound) (collagen; initial conc. 300 nM) | Collagen binding (% bound) (collagen; initial conc. 1000 nM) | Target to background ratio (TBR) (HT-29 tumour) |
| --- | --- | --- | --- | --- | --- | --- | --- | --- | --- |
| CC1(CCCCS(=O)(=O)[O-])C(/C=C/C=C/C=C2\N(CCCCS(=O)(=O)O)c3c(F)c(F)c(F)c(F)c3C2(C)CCCCS(=O)(=O)O)=[N+](CCCCCC(=O)NCCCC[C@@H]2NC(=O)CSC[C@@H](C(=O)NCCOCCOCCOCCNC(=O)COCC(N)=O)NC(=O)[C@H](Cc3ccccc3)NC(=O)[C@@H]3CSSC[C@H](NC2=O)C(=O)N[C@@H](CCCNC(=N)N)C(=O)NCC(=O)N[C@@H](CC(=O)O)C(=O)N3)c2c(F)c(F)c(F)c(F)c21 (stereo partly drawn) [Compound 7] | 7.4 nM | slightly higher Ki value | highest PPB | 70% | – | – | – | – | – |
| CCN1\C(=C/C=C/C=C/C2=[N+](CCCCCC(=O)NCCOCCOCCOCCNC(=O)COCC(=O)NCCCC[C@@H]3NC(=O)CSC[C@@H](C(=O)NCCOCCOCCOCCNC(=O)COCC(N)=O)NC(=O)[C@H](Cc4ccccc4)NC(=O)[C@@H]4CSSC[C@H](NC3=O)C(=O)N[C@@H](CCCNC(=N)N)C(=O)NCC(=O)N[C@@H](CC(=O)O)C(=O)N4)c3ccc(S(=O)(=O)[O-])cc3C2(C)C)C(C)(C)c2cc(S(=O)(=O)O)ccc21 [Compound 8] | – | – | – | 93% | 92.1% | 85.9% | 56.7% | 32.7% | – |
| C[N+]1=C(/C=C/C=C/C=C2/N(CCCCCC(=O)NCCCC[C@@H]3NC(=O)CSC[C@@H](C(=O)NCCOCCOCCOCCNC(=O)COCC(N)=O)NC(=O)[C@H](Cc4ccccc4)NC(=O)[C@@H]4CSSC[C@H](NC3=O)C(=O)N[C@@H](CCCNC(=N)N)C(=O)NCC(=O)N[C@@H](CC(=O)O)C(=O)N4)c3ccccc3C2(C)C)C(C)(C)c2cc(S(=O)(=O)[O-])ccc21 [Compound 3, RGD-Cy5(1)) Dye Conjugate] ({CH2CO}-K(X1)CRGDCFC-X2; disulfide 2-6; thioether N-8) | 2.6 nM | – | highest PPB | – | – | – | – | – | – |
| CC[N+]1=C(/C=C/C=C/C=C2/N(CCCCCC(=O)NCCCC[C@@H]3NC(=O)CSC[C@@H](C(=O)NCCOCCOCCOCCNC(=O)COCC(N)=O)NC(=O)[C@H](CCCNC(=N)N)NC(=O)[C@@H]4CSSC[C@H](NC3=O)C(=O)NCC(=O)N[C@@H](CC(=O)O)C(=O)N[C@@H](Cc3ccccc3)C(=O)N4)c3ccc(S(=O)(=O)O)cc3C2(C)C)C(C)(C)c2cc(S(=O)(=O)[O-])ccc21 [Compound 2, neg-RGD-[Cy5(2)] Dye Conjugate] ({CH2CO}-K(X3)CGDFCRC-X2; disulfide 2-6; thioether N-8) | – | – | – | – | 87% | 81.1% | 83% | – | 1.14 |
| CC1(CCCCS(=O)(=O)O)C(/C=C/C=C/C=C2/N(CCCCCC(=O)NCCCC[C@@H]3NC(=O)CSC[C@@H](C(=O)NCCOCCOCCOCCNC(=O)COCC(N)=O)NC(=O)[C@H](Cc4ccccc4)NC(=O)[C@@H]4CSSC[C@H](NC3=O)C(=O)N[C@@H](CCCNC(=N)N)C(=O)NCC(=O)N[C@@H](CC(=O)O)C(=O)N4)c3ccc(S(=O)(=O)O)cc3C2(C)C)=[N+](CCCCS(=O)(=O)O)c2ccc(S(=O)(=O)O)cc21 (stereo partly drawn) [Compound 4, RGD-Cy5** Dye Conjugate] | 1.8 nM | – | lowest | 100% | – | – | – | – | – |
| CC1(C)C(/C=C/C=C/C=C2/N(CCCS(=O)(=O)O)c3ccc(S(=O)(=O)O)cc3C2(C)CCCCCC(=O)NCCCC[C@@H]2NC(=O)CSC[C@@H](C(=O)NCCOCCOCCOCCNC(=O)COCC(N)=O)NC(=O)[C@H](Cc3ccccc3)NC(=O)[C@@H]3CSSC[C@H](NC2=O)C(=O)N[C@@H](CCCNC(=N)N)C(=O)NCC(=O)N[C@@H](CC(=O)O)C(=O)N3)=[N+](CCCS(=O)(=O)O)c2ccc(S(=O)(=O)O)cc21 (stereo partly drawn) [Compound 6, RGD-Alexa 647 Dye Conjugate] | 1.6 nM | – | lowest | 100% | – | – | – | – | – |
| CC1(CCCCS(=O)(=O)O)C(/C=C/C=C/C=C2\N(CCCCCC(=O)NCCCC[C@@H]3NC(=O)CSC[C@@H](C(=O)NCCOCCOCCOCCNC(=O)COCC(N)=O)NC(=O)[C@H](Cc4ccccc4)NC(=O)[C@@H]4CSSC[C@H](NC3=O)C(=O)N[C@@H](CCCNC(=N)N)C(=O)NCC(=O)N[C@@H](CC(=O)O)C(=O)N4)c3ccc(S(=O)(=O)O)cc3C2(C)CCCCS(=O)(=O)O)=[N+](Cc2ccccc2)c2ccc(S(=O)(=O)[O-])cc21 (stereo partly drawn) [Compound 5] | – | – | – | 46% | 83.6% | 96.1% | 50.9% | 30.4% | – |
| CC[N+]1=C(/C=C/C=C/C=C2/N(CCCCCC(=O)NCCCC[C@@H]3NC(=O)CSC[C@@H](C(=O)NCCOCCOCCOCCNC(=O)COCC(N)=O)NC(=O)[C@H](Cc4ccccc4)NC(=O)[C@@H]4CSSC[C@H](NC3=O)C(=O)N[C@@H](CCCNC(=N)N)C(=O)NCC(=O)N[C@@H](CC(=O)O)C(=O)N4)c3ccc(S(=O)(=O)O)cc3C2(C)C)C(C)(C)c2cc(S(=O)(=O)[O-])ccc21 [Compound 1, RGD-[Cy5(2)] Dye Conjugate] ({CH2CO}-K(X3)CRGDCFC-X2; disulfide 2-6; thioether N-8) | 1.9 nM | – | – | – | – | – | – | – | – |
